How the values were obtained:
[1] = Inhibition of full-length DC-SIGN (unknown origin) expressed in human monocyte derived dendritic cells assessed as inhibition of binding to recombinant HCMV gB using flow cytometry
[2] = Inhibition of DC-SIGN extracellular domain (unknown origin) binding to HIV gp120 by surface plasmon resonance analysis
[3] = Inhibition of DC-SIGN (unknown origin) expressed in human Jurkat cells assessed as inhibition of EBOV-pseudotyped virus infection measured after 48 hrs by luciferase assay

Row | Compound | IC50 [1] [µM] | IC50 [2] [µM] | IC50 [3] [µM]
1 | COC(=O)CNC(=O)CN(Cc1cn(CCCOc2c3cc(C(C)(C)C)cc2Sc2cc(C(C)(C)C)cc(c2OCCCn2cc(CN(CC(=O)NCC(=O)OC)C(=O)CCCCCn4cc(CO[C@@H]5O[C@@H](C)[C@@H](O)[C@@H](O)[C@@H]5O)nn4)nn2)Sc2cc(C(C)(C)C)cc(c2OCCCn2cc(CN(CC(=O)NCC(=O)OC)C(=O)CCCCCn4cc(CO[C@@H]5O[C@@H](C)[C@@H](O)[C@@H](O)[C@@H]5O)nn4)nn2)Sc2cc(C(C)(C)C)cc(c2OCCCn2cc(CN(CC(=O)NCC(=O)OC)C(=O)CCCCCn4cc(CO[C@@H]5O[C@@H](C)[C@@H](O)[C@@H](O)[C@@H]5O)nn4)nn2)S3)nn1)C(=O)CCCCCn1cc(CO[C@@H]2O[C@@H](C)[C@@H](O)[C@@H](O)[C@@H]2O)nn1 | 1 | 17 | 0.602
2 | CC(C)(C)c1cc2c(OCCCn3cc(CN(O)C(=O)CCCCCn4cc(CO[C@H]5O[C@H](CO)[C@@H](O)[C@H](O)[C@@H]5O)nn4)nn3)c(c1)Cc1cc(C(C)(C)C)cc(c1OCCCn1cc(CN(O)C(=O)CCCCCn3cc(CO[C@H]4O[C@H](CO)[C@@H](O)[C@H](O)[C@@H]4O)nn3)nn1)Cc1cc(C(C)(C)C)cc(c1OCCCn1cc(CN(O)C(=O)CCCCCn3cc(CO[C@H]4O[C@H](CO)[C@@H](O)[C@H](O)[C@@H]4O)nn3)nn1)Cc1cc(C(C)(C)C)cc(c1OCCCn1cc(CN(O)C(=O)CCCCCn3cc(CO[C@H]4O[C@H](CO)[C@@H](O)[C@H](O)[C@@H]4O)nn3)nn1)C2 | 0.156 | 37.5 | 0.634
3 | C[C@@H]1O[C@@H](OCc2cn(CCCCCC(=O)N(O)Cc3cn(CCCOc4c5cc(C(C)(C)C)cc4Cc4cc(C(C)(C)C)cc(c4OCCCn4cc(CN(O)C(=O)CCCCCn6cc(CO[C@@H]7O[C@@H](C)[C@@H](O)[C@@H](O)[C@@H]7O)nn6)nn4)Cc4cc(C(C)(C)C)cc(c4OCCCn4cc(CN(O)C(=O)CCCCCn6cc(CO[C@@H]7O[C@@H](C)[C@@H](O)[C@@H](O)[C@@H]7O)nn6)nn4)Cc4cc(C(C)(C)C)cc(c4OCCCn4cc(CN(O)C(=O)CCCCCn6cc(CO[C@@H]7O[C@@H](C)[C@@H](O)[C@@H](O)[C@@H]7O)nn6)nn4)C5)nn3)nn2)[C@@H](O)[C@H](O)[C@@H]1O | 0.188 | 26.8 | 0.289
4 | CO[C@H]1O[C@H](CO)[C@@H](O)[C@H](O)[C@@H]1O [methyl alpha-D-mannoside] | – | – | 1270
5 | COC(=O)CNC(=O)CN(Cc1cn(CCCOc2c3cc(C(C)(C)C)cc2Cc2cc(C(C)(C)C)cc(c2OCCCn2cc(CN(CC(=O)NCC(=O)OC)C(=O)CCCCCn4cc(CO[C@H]5O[C@H](CO)[C@@H](O)[C@H](O)[C@@H]5O)nn4)nn2)Cc2cc(C(C)(C)C)cc(c2OCCCn2cc(CN(CC(=O)NCC(=O)OC)C(=O)CCCCCn4cc(CO[C@H]5O[C@H](CO)[C@@H](O)[C@H](O)[C@@H]5O)nn4)nn2)Cc2cc(C(C)(C)C)cc(c2OCCCn2cc(CN(CC(=O)NCC(=O)OC)C(=O)CCCCCn4cc(CO[C@H]5O[C@H](CO)[C@@H](O)[C@H](O)[C@@H]5O)nn4)nn2)C3)nn1)C(=O)CCCCCn1cc(CO[C@H]2O[C@H](CO)[C@@H](O)[C@H](O)[C@@H]2O)nn1 | – | 45.3 | –
6 | COC(=O)CNC(=O)CN(Cc1cn(CCCOc2c3cc(C(C)(C)C)cc2Cc2cc(C(C)(C)C)cc(c2OCCCn2cc(CN(CC(=O)NCC(=O)OC)C(=O)CCCCCn4cc(CO[C@@H]5O[C@@H](C)[C@@H](O)[C@@H](O)[C@@H]5O)nn4)nn2)Cc2cc(C(C)(C)C)cc(c2OCCCn2cc(CN(CC(=O)NCC(=O)OC)C(=O)CCCCCn4cc(CO[C@@H]5O[C@@H](C)[C@@H](O)[C@@H](O)[C@@H]5O)nn4)nn2)Cc2cc(C(C)(C)C)cc(c2OCCCn2cc(CN(CC(=O)NCC(=O)OC)C(=O)CCCCCn4cc(CO[C@@H]5O[C@@H](C)[C@@H](O)[C@@H](O)[C@@H]5O)nn4)nn2)C3)nn1)C(=O)CCCCCn1cc(CO[C@@H]2O[C@@H](C)[C@@H](O)[C@@H](O)[C@@H]2O)nn1 | 0.777 | 26.5 | 0.218
7 | COC(=O)CNC(=O)CN(Cc1cn(CCCOc2c3cc(C(C)(C)C)cc2Sc2cc(C(C)(C)C)cc(c2OCCCn2cc(CN(CC(=O)NCC(=O)OC)C(=O)CCCCCn4cc(CO[C@H]5O[C@H](CO)[C@@H](O)[C@H](O)[C@@H]5O)nn4)nn2)Sc2cc(C(C)(C)C)cc(c2OCCCn2cc(CN(CC(=O)NCC(=O)OC)C(=O)CCCCCn4cc(CO[C@H]5O[C@H](CO)[C@@H](O)[C@H](O)[C@@H]5O)nn4)nn2)Sc2cc(C(C)(C)C)cc(c2OCCCn2cc(CN(CC(=O)NCC(=O)OC)C(=O)CCCCCn4cc(CO[C@H]5O[C@H](CO)[C@@H](O)[C@H](O)[C@@H]5O)nn4)nn2)S3)nn1)C(=O)CCCCCn1cc(CO[C@H]2O[C@H](CO)[C@@H](O)[C@H](O)[C@@H]2O)nn1 | – | 14.6 | –
